# Results from patent US20240376073A1 (Hoffmann-La Roche Inc., priority 2021, published 2024).
# Structures can show the parent of a compound that is named as a salt.
# Test system: Acinetobacter baumannii ATCC17961
# Assay: Antimicrobial susceptibility testing: 90% growth inhibitory concentration (IC90) determination
# Format: cell-based
# Conditions: Acinetobacter baumannii ATCC17961; Iso-Sensitest broth; growth by OD 600 nm over 16 h; 35±2° C.; read-out: ATCC 17961 IC90
# Method: The in vitro antimicrobial activity of the compounds was determined according to the following procedure:
# The assay used a 10-points Iso-Sensitest broth medium to measure quantitatively the in vitro activity of the compounds against Acinetobacter baumannii ATCC17961.
# Stock compounds in DMSO were serially twofold diluted (e.g. range from 50 to 0.097 μM final concentration) in 384 wells microtiter plates and inoculated with 49 μl the bacterial suspension in Iso-Sensitest medium to have a final cell concentration of ˜5×10^(5) CFU/ml in a final volume/well of 50 ul/well. Microtiter plates were incubated at 35±2° C.
# Bacterial cell growth was determined with the measurement of optical density at λ=600 nm each 20 minutes over a time course of 16 h. Growth inhibition was calculated during the logarithmic growth of the bacterial cells with determination of the concentration inhibiting 50% (IC50) and 90% (IC90) of the growth.
# Table 1 provides the […] growth inhibitory concentrations (IC90) in micromoles per liter of the compounds of present invention obtained against the strain Acinetobacter baumannii ATCC17961.
row,SMILES,IC90
1,"COc1ccc(-c2cnc(C(=O)Nc3ccc(C(=O)N4CCC(CC[N+](C)(C)C)CC4)c(Cl)c3)n2C)c(F)c1F [Example A1, 2-[1-[2-Chloro-4-[[5-(2,3-difluoro-4-methoxy-phenyl)-1-methyl-imidazole-2-carbonyl]amino]benzoyl]-4-piperidyl]ethyl-trimethyl-ammonium;formate]",0.079 µM
2,"COc1ccc(-c2cnc(C(=O)Nc3ccc(C(=O)NCCCCC[N+](C)(C)C)c(Cl)c3)n2C)c(F)c1F [Example A2, 5-[[2-Chloro-4-[[5-(2,3-difluoro-4-methoxy-phenyl)-1-methyl-imidazole-2-carbonyl]amino]benzoyl]amino]pentyl-trimethyl-ammonium;formate]",0.34 µM
3,"COc1ccc(-c2cnc(C(=O)Nc3ccc(C(=O)NCCCCC[N+](C)(C)CC(N)=O)c(Cl)c3)n2C)c(F)c1F [Example A3, (2-amino-2-oxo-ethyl)-[5-[[2-chloro-4-[[5-(2,3-difluoro-4-methoxy-phenyl)-1-methyl-imidazole-2-carbonyl]amino]benzoyl]amino]pentyl]-dimethyl-ammonium; formate]",0.16 µM
4,"COc1ccc(-c2cnc(C(=O)Nc3ccc(C(=O)N4CCN(CC[N+](C)(C)CC(N)=O)CC4)c(Cl)c3)n2C)c(F)c1F [Example A4, (2-amino-2-oxo-ethyl)-[2-[4-[2-chloro-4-[[5-(2,3-difluoro-4-methoxy-phenyl)-1-methyl-imidazole-2-carbonyl]amino]benzoyl]piperazin-1-yl]ethyl]-dimethyl-ammonium; formate]",0.21 µM
5,"CCc1cc(NC(=O)c2ncc(-c3ccc(OC)c(F)c3F)n2C)ccc1C(=O)NCCOCC[N+](C)(C)C [Example A5, 2-(2-(4-(5-(2,3-difluoro-4-methoxyphenyl)-1-methyl-1H-imidazole-2-carboxamido)-2-ethylbenzamido)ethoxy)-N,N,N-trimethylethan-1-aminium iodide]",0.46 µM
6,"CCc1cc(NC(=O)c2ncc(-c3ccc(OC)c(F)c3F)n2C)ccc1C(=O)N1CCN(CCC[N+](C)(C)C)CC1 [Example A6, 3-(4-(4-(5-(2,3-difluoro-4-methoxyphenyl)-1-methyl-1H-imidazole-2-carboxamido)-2-ethylbenzoyl)piperazin-1-yl)-N,N,N-trimethylpropan-1-aminium iodide]",1.5 µM

# Second part, the molecule after the results:
row,IC90,SMILES
1,0.031 µM,"Cn1c(-c2ccc(OC(F)F)c(F)c2F)cnc1C(=O)Nc1ccc(C(=O)N2CCN(C(=O)[C@H]3[C@@H]4C[N+](C)(CC(N)=O)C[C@@H]43)CC2)c(Cl)c1 (mixture of isomers) [Example C4, N-[4-[4-[(1R,5S)-3-(2-amino-2-oxo-ethyl)-3-methyl-3-azoniabi-cyclo[3.1.0]-hexane-6-carbonyl]-piperazine-1-carbonyl]-3-chloro-phenyl]-5-[4-(difluoro-methoxy)-2,3-difluoro-phen-yl]-1-methyl-imidazole-2-carboxamide; formate]"
2,0.54 µM,"Cn1c(-c2ccc(OCF)c(F)c2F)cnc1C(=O)Nc1ccc(C(=O)N2CCN(C(=O)[C@H]3[C@@H]4C[N+](C)(CC(=O)O)C[C@@H]43)CC2)c(Cl)c1 (mixture of isomers) [Example C30, 2-[(1R,5S)-6-[4-[2-chloro-4-[[5-[2,3-difluoro-4-(fluoromethoxy)phenyl]-1-meth-yl-imidazole-2-carbonyl]amino]-benzoyl]piper-azine-1-carbon-yl]-3-methyl-3-azoniabicyclo-[3.1.0]hexan-3-yl]acetic acid; 2,2,2-trifluoro-acetate]"

# Same assay, conditions: read-out: ATCC 17961 IC90; Acinetobacter baumannii ATCC17961; Iso-Sensitest broth; growth by OD 600 nm over 16 h; 35±2° C.; formate
row,SMILES,IC90
1,"COc1ccc(-c2cnc(C(=O)Nc3ccc(C(=O)N4CCN(C(=O)C5C[C@H](O)C[N+]5(C)C)CC4)c(Cl)c3)n2C)c(F)c1F (stereo in doubt) [Example B37, N-[3-chloro-4-[4-[(2R,4S)-4-hydroxy-1,1-dimethyl-pyrrolidin-1-ium-2-carbonyl]piperazine-1-carbonyl]phenyl]-5-(2,3-difluoro-4-methoxy-phenyl)-1-methyl-imidazole-2-carboxamide; formate]",0.19 µM
